Source: patent publication US20110245294A1, “METHODS OF IMPROVING QUALITY OF SLEEP” (THERAVIDA, INC., priority 2010, published 2011)

Tests used:
[1] = tested on: healthy volunteers; conditions: some studies have suggested; cited from earlier work
[2] = tested on: patients being treated for OAB
Description: Enrollment of subjects already taking this medication was used to enable the collection of steady-state baseline information and to minimize discontinuations during the 4-week treatment period. On three consecutive days, subjects were asked to complete paper diaries where the subject answered questions related to the degree of difficulty of sleep and responded by using a VAS. These questions and VAS have been validated and used in other clinical studies. Furthermore, each subject relinquished the completed diary at the end of each treatment period following a review by clinic staff.
The methods used to collect information for assessment of quality of sleep, subjects were asked specific questions and they rated their quality of sleep using a VAS. The mean of the values obtained on each of the three days was used as the sole value for the baseline or treatment value. The methods used to evaluate effect on quality of sleep of the combination and oxybutynin alone are widely used and considered standard.
The VAS is a validated scale utilized in clinical trials and registrational studies of many drugs. Patients were instructed on how to complete the diary over 3 consecutive days and perform VAS assessments for quality of sleep on the diary days. The ratings were from 0 to 100 on a 100-mm line, and the patient was asked to rate themself by marking the horizontal line. For instance, quality of sleep was quantified as 0=easy and 100=difficult.

SMILES | effect on sleep [1] | VAS quality of sleep response versus baseline or monotherapy, in words ([2]; 100-point mm scale, reduction from baseline) | Change in LSM from Baseline in Quality of Sleep ([2]; ITT population, N = 42, lower scores indicate improvement from baseline, P value 0.0073 between treatments) | Quality of Sleep Value (VAS), mean ([2]; mean over subjects, 0=easy, 100=difficult, 2 weeks treatment, baseline mean 37.6 mm)
O=C(O[C@H]1C[C@H]2CC[C@@H](C1)[N+]21CCCC1)C(O)(c1ccccc1)c1ccccc1 [trospium] | adverse effect on the sleep |  |  | 
CCN(CC)CC#CCOC(=O)C(O)(c1ccccc1)C1CCCCC1 (centres unmarked) [Oxybutynin, oxybutynin] | adverse effect on the sleep | unchanged from baseline | 3.7 mm | 41.3 mm
